Data as given in patent US10738057B2, “Tertiary alcohols as PI3K-γ inhibitors” (Incyte Corporation, priority 2017, dated 2020).
pIC50: −log10 of the molar value. Where a name gives a salt, the structure may show the parent alone. Read-outs that look alike come from different tables or passages of the source.

Experiments:
[1] = target: PI3Kδ (p110δ/p85α) Recombinant Human Protein (Homo sapiens (Human), UniProt O00329); assay: PI3Kδ scintillation proximity assay; assay type: biochemical; settings: 20 μM PIP2, 2 μM ATP, 3.4 nM PI3Kδ, 120 min, room temperature; read-out: PI3Kδ IC50
Procedure: PI3Kδ Scintillation Proximity Assay
[γ-^33P]ATP (10 mCi/mL) and Wheat Germ Agglutinin (WGA) YSi SPA Scintillation Beads was purchased from PerkinElmer (Waltham, Mass.). […] PI3Kδ (p110δ/p85α) Recombinant Human Protein was purchased from Eurofins (St Charles, Mo.). ATP, MgCl2, DTT, EDTA, MOPS and CHAPS were purchased from SigmaAldrich (St. Louis, Mo.).
The kinase reaction was conducted in polystyrene 384-well Greiner Bio-one white plate from Thermo Fisher Scientific in a final volume of 25 μL. Inhibitors were first diluted serially in DMSO and added to the plate wells before the addition of other reaction components. The final concentration of DMSO in the assay was 2%. The PI3Kδ assay was carried out at room temperature in 20 mM MOPS, pH 6.7, 10 mM MgCl2, 5 mM DTT and CHAPS 0.03%. Reactions were initiated by the addition of ATP, the final reaction mixture consisted of 20 μM PIP2, 2 μM ATP, 0.5 μCi [γ-^33P] […] The final concentration of SPA beads is 1.0 mg/mL. After the plate sealing, plates were shaken overnight at room temperature and centrifuged at 1500 rpm for 10 min, the radioactivity of the product was determined by scintillation counting on Topcount (PerkinElmer). IC50 determination was performed by fitting the curve of percent of the solvent control activity versus the log of the inhibitor concentration using the GraphPad Prism 6.0 software.

[2] = target: PI3Kγ (p110γ) Recombinant Human Protein (Homo sapiens (Human), UniProt P48736); assay: PI3K-γ scintillation proximity assay; assay type: biochemical; settings: 20 μM PIP2, 2 μM ATP, 13 nM PI3Kγ, 120 min, room temperature
From the text: Example B. PI3K-γ Scintillation Proximity Assay
[γ-^33P]ATP (10 mCi/mL) and Wheat Germ Agglutinin (WGA) YSi SPA Scintillation Beads was purchased from PerkinElmer (Waltham, Mass.). Lipid kinase substrate, D-myo-Phosphatidylinositol 4,5-bisphosphate (PtdIns(4,5)P2)D (+)-sn-1,2-di-O-octanoylglyceryl, 3-O-phospho linked (PIP2), CAS 204858-53-7, was purchased from Echelon Biosciences (Salt Lake City, Utah). PI3Kγ (p110γ) Recombinant Human Protein was purchased from Life technology (Grand Island, N.Y.). ATP, MgCl2, DTT, EDTA, MOPS and CHAPS were purchased from SigmaAldrich (St. Louis, Mo.).
The kinase reaction was conducted in polystyrene 384-well Greiner Bio-one white plate from Thermo Fisher Scientific in a final volume of 25 μL. Inhibitors were first diluted serially in DMSO and added to the plate wells before the addition of other reaction components. The final concentration of DMSO in the assay was 2%. The PI3Kγ assay was carried out at room temperature in 20 mM MOPS, pH 6.7, 10 mM MgCl2, 5 mM DTT and CHAPS 0.03%. Reactions were initiated by the addition of ATP, the final reaction mixture consisted of 20 μM PIP2, 2 μM ATP, 0.5 μCi [γ-^33P] ATP, 13 nM PI3Kγ. Reactions were incubated for 120 min and terminated by the addition of 40 μL SPA beads suspended in quench buffer: 163 mM potassium phosphate pH 7.8, 20% glycerol, 25 mM EDTA. The final concentration of SPA beads is 1.0 mg/mL. After the plate sealing, plates were shaken overnight at room temperature and centrifuged at 1500 rpm for 10 min, the radioactivity of the product was determined by scintillation counting on Topcount (Perkin-Elmer). IC50 determination was performed by fitting the curve of percent of the solvent control activity versus the log of the inhibitor concentration using the GraphPad Prism 6.0 software.

[3] = system: Phosphorylated Ribosomal Protein S6 (RPS6) in THP-1 cells; assay: THP-1 RPS6 ELISA assay; assay type: cell-based, Human; settings: serum starved, 2 h compound, 10 nM MCP-1 for 15 min, phospho-RPS6 ELISA, read-out: PI3Kγ_THP1_RPS6_ELISA IC50
Procedure: Example A. THP-1 RPS6 ELISA Assay
To measure the Phosphorylated Ribosomal Protein S6 (RPS6) in cell lysates, THP-1 cells (Human Acute Monocytic Leukemia) are purchased from ATCC (Manassas, Va.) and maintained in RPMI with 10% FBS (Gibco/Life Technologies, Carlsbad, Calif.). For the assay, THP-1 cells are serum starved overnight in RPMI, then plated in RPMI (2×10^5 cells/well in 90 μL) into 96-well flat-bottom tissue culture treated plates (Corning, Corning, N.Y.), in the presence or absence of a concentration range of test compounds. Covered plates are incubated for 2 hours at 37° C., 5% CO2 then treated with or without 10 nM MCP-1 (MYBioSource, San Diego, Calif.) for 15 minutes at 37° C., 5% CO2. Plates are centrifuged at 1600 RPM and supernatants are removed. Cells are lysed in Lysis Buffer (Cell Signaling, Danvers, Mass.) with Protease Inhibitor (Calbiochem/EMD, Germany), PMSF (Sigma, St Louis Mo.), HALTS (Thermo Fisher, Rockford, Ill.) for 30 min on wet ice. Cell lysates are frozen at −80° C. before testing. The lysates are tested in the Human/Mouse/Rat Phospho-RPS6 ELISA (R&D Systems, Inc. Minn, Minn.). The plate is measured using a microplate reader (SpectraMax M5—Molecular Devices, LLC Sunnyvale, Calif.) set to 450 nm with a wavelength correction of 540. IC50 determination is performed by fitting the curve of inhibitor percent inhibition versus the log of the inhibitor concentration using the GraphPad Prism 5.0 software.

[4] = Homo sapiens, THP-1, THP-1 cells

Chain of PI3Kγ (p110γ) Recombinant Human Protein (P48736 whole entry): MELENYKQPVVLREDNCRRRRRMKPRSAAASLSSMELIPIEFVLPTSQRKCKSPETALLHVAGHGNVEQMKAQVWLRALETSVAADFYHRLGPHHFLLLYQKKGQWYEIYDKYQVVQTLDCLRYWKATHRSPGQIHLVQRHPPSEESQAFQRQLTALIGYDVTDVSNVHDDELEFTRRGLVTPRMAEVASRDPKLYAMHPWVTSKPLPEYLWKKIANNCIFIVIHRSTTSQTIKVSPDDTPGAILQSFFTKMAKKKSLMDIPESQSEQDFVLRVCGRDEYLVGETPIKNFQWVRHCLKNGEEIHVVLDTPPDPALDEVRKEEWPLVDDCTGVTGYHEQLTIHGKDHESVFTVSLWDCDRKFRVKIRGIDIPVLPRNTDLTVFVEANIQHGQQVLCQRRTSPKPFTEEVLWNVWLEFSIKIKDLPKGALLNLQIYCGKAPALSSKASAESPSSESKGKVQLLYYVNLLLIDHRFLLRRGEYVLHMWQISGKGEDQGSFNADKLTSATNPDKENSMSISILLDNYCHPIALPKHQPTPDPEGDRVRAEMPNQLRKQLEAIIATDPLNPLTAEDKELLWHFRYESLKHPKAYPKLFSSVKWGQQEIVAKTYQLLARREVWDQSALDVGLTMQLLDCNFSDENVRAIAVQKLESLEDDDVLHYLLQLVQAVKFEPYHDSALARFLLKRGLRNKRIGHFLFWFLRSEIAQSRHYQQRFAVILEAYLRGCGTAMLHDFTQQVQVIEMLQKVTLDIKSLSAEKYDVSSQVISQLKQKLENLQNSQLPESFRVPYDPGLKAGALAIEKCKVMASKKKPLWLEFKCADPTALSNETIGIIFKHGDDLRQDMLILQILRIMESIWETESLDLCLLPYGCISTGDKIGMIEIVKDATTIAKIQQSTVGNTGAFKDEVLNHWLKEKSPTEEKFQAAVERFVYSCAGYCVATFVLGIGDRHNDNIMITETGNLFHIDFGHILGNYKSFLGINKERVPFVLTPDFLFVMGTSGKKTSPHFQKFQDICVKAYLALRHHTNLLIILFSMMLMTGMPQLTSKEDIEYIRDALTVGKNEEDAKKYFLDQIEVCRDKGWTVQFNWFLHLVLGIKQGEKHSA
Chain of PI3Kδ (p110δ/p85α) Recombinant Human Protein (O00329 whole entry): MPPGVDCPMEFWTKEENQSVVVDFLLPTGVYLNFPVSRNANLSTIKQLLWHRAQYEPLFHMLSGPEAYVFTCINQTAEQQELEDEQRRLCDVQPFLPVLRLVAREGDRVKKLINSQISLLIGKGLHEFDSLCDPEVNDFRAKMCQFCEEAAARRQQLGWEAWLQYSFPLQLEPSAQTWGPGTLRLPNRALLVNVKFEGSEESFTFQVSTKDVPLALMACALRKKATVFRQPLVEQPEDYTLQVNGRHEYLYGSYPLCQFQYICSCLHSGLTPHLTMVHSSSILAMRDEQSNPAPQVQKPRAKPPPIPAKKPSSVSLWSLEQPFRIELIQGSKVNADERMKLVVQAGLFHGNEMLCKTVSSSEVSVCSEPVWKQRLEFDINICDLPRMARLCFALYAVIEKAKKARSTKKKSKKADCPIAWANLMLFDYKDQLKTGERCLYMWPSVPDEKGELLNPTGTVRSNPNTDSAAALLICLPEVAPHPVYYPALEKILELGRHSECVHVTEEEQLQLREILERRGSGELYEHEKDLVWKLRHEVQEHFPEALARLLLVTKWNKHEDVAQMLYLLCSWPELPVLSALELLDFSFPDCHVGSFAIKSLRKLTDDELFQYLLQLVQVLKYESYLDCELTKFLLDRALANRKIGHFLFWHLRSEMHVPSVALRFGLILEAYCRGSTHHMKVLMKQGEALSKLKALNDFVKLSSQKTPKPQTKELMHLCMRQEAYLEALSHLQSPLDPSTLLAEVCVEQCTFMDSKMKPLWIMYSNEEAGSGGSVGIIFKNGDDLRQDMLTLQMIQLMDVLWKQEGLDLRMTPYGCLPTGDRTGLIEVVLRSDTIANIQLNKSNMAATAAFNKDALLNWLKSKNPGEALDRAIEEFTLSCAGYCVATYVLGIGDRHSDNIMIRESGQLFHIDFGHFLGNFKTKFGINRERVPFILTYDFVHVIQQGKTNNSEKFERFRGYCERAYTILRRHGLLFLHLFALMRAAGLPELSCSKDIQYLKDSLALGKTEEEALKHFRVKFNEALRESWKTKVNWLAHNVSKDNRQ
Chain of PI3Kδ (p110δ/p85α) Recombinant Human Protein (P27986 whole entry partner): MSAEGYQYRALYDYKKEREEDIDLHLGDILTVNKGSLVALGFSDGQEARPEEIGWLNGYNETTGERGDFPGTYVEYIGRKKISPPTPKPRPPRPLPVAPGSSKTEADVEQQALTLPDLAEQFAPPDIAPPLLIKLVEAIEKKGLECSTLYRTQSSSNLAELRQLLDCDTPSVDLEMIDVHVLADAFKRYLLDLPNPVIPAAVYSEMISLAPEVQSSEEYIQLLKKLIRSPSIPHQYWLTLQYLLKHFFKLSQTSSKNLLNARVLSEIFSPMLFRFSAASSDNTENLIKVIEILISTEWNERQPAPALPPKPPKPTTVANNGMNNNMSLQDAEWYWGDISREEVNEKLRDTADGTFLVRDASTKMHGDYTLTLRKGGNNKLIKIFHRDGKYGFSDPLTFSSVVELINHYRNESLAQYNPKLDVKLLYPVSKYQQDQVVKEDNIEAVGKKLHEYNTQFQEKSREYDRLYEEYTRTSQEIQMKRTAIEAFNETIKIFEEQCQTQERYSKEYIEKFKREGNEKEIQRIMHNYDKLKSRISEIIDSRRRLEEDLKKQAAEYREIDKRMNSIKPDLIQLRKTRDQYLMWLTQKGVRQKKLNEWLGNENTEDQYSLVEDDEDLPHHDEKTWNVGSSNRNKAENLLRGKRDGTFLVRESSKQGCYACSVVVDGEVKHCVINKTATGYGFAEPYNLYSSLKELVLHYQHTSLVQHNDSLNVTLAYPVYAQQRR

| pIC50 [1] | pIC50 [2] | pIC50 ([3]; THP-1 cells) | pIC50 [3, 4] | SMILES | pIC50 ([3]; Homo sapiens, THP-1 cells) |
| --- | --- | --- | --- | --- | --- |
| > 7.00 | > 7.00 | – | 6.30 to 7.00 | COc1cnc(-c2cn3c(-c4cc(C(C)(O)C(F)(F)F)ccc4C)cnc3c(N)n2)s1 (stereo not drawn) [Example 21, 2-(3-(8-Amino-6-(5-methoxythiazol-2-yl)imidazo[1,2-a]pyrazin-3-yl)-4-methylphenyl)-1,1,1-trifluoropropan-2-ol, TFA] | – |
| 6.30 to 7.00 | > 7.00 | – | 6.30 to 7.00 | Cc1ccc(C2(O)CCCC2F)cc1-c1cnc2c(N)nc(C(F)(F)F)cn12 (stereo not drawn) [Example 61, 1-(3-(8-Amino-6-(trifluoromethyl)imidazo[1,2-a]pyrazin-3-yl)-4-methylphenyl)-2-fluorocyclopentan-1-ol trifluoroacetate salt] | – |
| 6.30 to 7.00 | > 7.00 | – | 6.30 to 7.00 | Cc1ccc(C(O)(CCO)C(F)(F)F)cc1-c1cnc2c(N)nc(C(F)(F)F)cn12 (stereo not drawn) [Example 18, 3-(3-(8-Amino-6-(trifluoromethyl)imidazo[1,2-a]pyrazin-3-yl)-4-methylphenyl)-4,4,4-trifluorobutane-1,3-diol] | – |
| 6.30 to 7.00 | > 7.00 | > 7.00 | – | Cc1ccc(C(O)(CO)C(F)(F)F)cc1-c1cnc2c(N)nc(C(F)(F)F)cn12 (single isomer, unassigned) [Example 72, 2-(3-(8-Amino-6-(trifluoromethyl)imidazo[1,2-a]pyrazin-3-yl)-4-methylphenyl)-3,3,3-trifluoropropane-1,2-diol] | – |
| 6.30 to 7.00 | > 7.00 | – | > 7.00 | [2H]C([2H])([2H])NC(=O)C(O)(c1ccc(C)c(-c2cnc3c(N)nc(C(=O)NC(CC#N)C(F)(F)F)cn23)c1)C(F)(F)F (stereo not drawn) [Example 289, 8-Amino-N-(3-cyano-1,1,1-trifluoropropan-2-yl)-3-(2-methyl-5-(1,1,1-trifluoro-2-hydroxy-3-((methyl-d3)amino)-3-oxopropan-2-yl)phenyl)imidazo[1,2-a]pyrazine-6-carboxamide trifluoroacetate salt] | – |
| 6.30 to 7.00 | > 7.00 | – | < 6.00 | CNC(=O)C(C)(C)C(O)(c1ccc(C)c(-c2cnc3c(N)nc(C(F)(F)F)cn23)c1)C(F)(F)F (stereo not drawn) [Example 262, 3-(3-(8-Amino-6-(trifluoromethyl)imidazo[1,2-a]pyrazin-3-yl)-4-methylphenyl)-4,4,4-trifluoro-3-hydroxy-N,2,2-trimethylbutanamide] | – |
| > 7.00 | > 7.00 | – | > 7.00 | Cc1ccc(C(O)(C(F)(F)F)C(F)(F)F)cc1-c1cnc2c(N)nc(-c3ccnn3C)cn12 [Example 264, 2-(3-(8-Amino-6-(1-methyl-1H-pyrazol-5-yl)imidazo[1,2-a]pyrazin-3-yl)-4-methylphenyl)-1,1,1,3,3,3-hexafluoropropan-2-ol] | – |
| 6.30 to 7.00 | > 7.00 | 6.30 to 7.00 | – | Cc1ccc(C(C)(O)C(F)(F)F)cc1-c1cnc2c(N)nc(C(F)(F)F)cn12 (single isomer, unassigned) [Example 6, 2-(3-(8-Amino-6-(trifluoromethyl)imidazo[1,2-a]pyrazin-3-yl)-4-methylphenyl)-1,1,1-trifluoropropan-2-ol] | – |

The next lines start with the compound.

| SMILES | pIC50 [1] | pIC50 [2] | pIC50 ([3]; THP-1 cells) | pIC50 [3, 4] | pIC50 ([3]; Homo sapiens, THP-1 cells) |
| --- | --- | --- | --- | --- | --- |
| Cc1ccc(C(C)(O)C(F)(F)F)cc1-c1cnc2c(N)nc(C(=O)NCC(C)(C)O)cn12 (single isomer, unassigned) [Example 63, 8-amino-N-(2-hydroxy-2-methylpropyl)-3-(2-methyl-5-(1,1,1-trifluoro-2-hydroxypropan-2-yl)phenyl)imidazo[1,2-a]pyrazine-6-carboxamide] | 6.30 to 7.00 | > 7.00 | 6.30 to 7.00 | – | – |
| Cc1ccc(C(C)(O)C(F)F)cc1-c1cnc2c(N)nc(C3CC3CO)cn12 (single isomer, unassigned) [Example 79, 2-(3-(8-Amino-6-(2-(hydroxymethyl)cyclopropyl)imidazo[1,2-a]pyrazin-3-yl)-4-methylphenyl)-1,1-difluoropropan-2-ol] | 5.70 to 6.30 | > 7.00 | – | 6.30 to 7.00 | – |
| Cc1ccc(C(O)(C(N)=O)C(F)(F)F)cc1-c1cnc2c(N)nc(C(F)(F)F)cn12 (stereo not drawn) [Example 82, 2-(3-(8-Amino-6-(trifluoromethyl)imidazo[1,2-a]pyrazin-3-yl)-4-methylphenyl)-3,3,3-trifluoro-2-hydroxypropanamide] | > 7.00 | > 7.00 | – | > 7.00 | – |
| Cc1ccc(C(C)(O)C(F)F)cc1-c1cnc2c(N)nc(-c3cnn(C)c3C)cn12 (stereo not drawn) [Example 36, 2-(3-(8-Amino-6-(1,5-dimethyl-1H-pyrazol-4-yl)imidazo[1,2-a]pyrazin-3-yl)-4-methylphenyl)-1,1-difluoropropan-2-ol] | > 7.00 | > 7.00 | – | 6.30 to 7.00 | – |
| CCC(O)(c1ccc(C)c(-c2cnc3c(N)nc(-c4ccnn4C)cn23)c1)C(F)F (stereo not drawn) [Example 50, 2-(3-(8-Amino-6-(1-methyl-1H-pyrazol-5-yl)imidazo[1,2-a]pyrazin-3-yl)-4-methylphenyl)-1,1-difluorobutan-2-ol trifluoroacetate] | 6.30 to 7.00 | > 7.00 | – | 6.30 to 7.00 | – |
| Cc1ccc(C(C)(O)CF)cc1-c1cnc2c(N)nc(C(F)(F)F)cn12 (racemic) [Example 24, 2-(3-(8-Amino-6-(trifluoromethyl)imidazo[1,2-a]pyrazin-3-yl)-4-methylphenyl)-1-fluoropropan-2-ol trifluoroacetate salt] | 5.70 to 6.30 | > 7.00 | – | 6.00 to 6.30 | – |
| Cc1ccc(C(O)(CNC(=O)CF)C(F)(F)F)cc1-c1cnc2c(N)nc(C(F)(F)F)cn12 (stereo not drawn) [Example 214, N-(2-(3-(8-amino-6-(trifluoromethyl)imidazo[1,2-a]pyrazin-3-yl)-4-methylphenyl)-3,3,3-trifluoro-2-hydroxypropyl)-2-fluoroacetamide trifluoroacetate salt] | 6.30 to 7.00 | > 7.00 | – | – | 6.30 to 7.00 |
